For assay [1], the system named is phospho-akt (Thr308) in PC-3 cells. The assay is described as follows: Inhibition of phospho-akt (Thr308) in PC-3 cells, MSD phospho-akt 308 ELISA kit. The format is cell-based. Particulars: Homo sapiens, 2 hours, no serum, read-out: EC50. The method, boiled down: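 Read-out is MSD electrochemiluminescence of Akt phosphorylated at Thr308 in lysates of PC-3 cells treated 2 h with compound in serum-free medium. Wortmannin at 5 μM defined the low control and DMSO the high control.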
For orientation: ELISA stands for enzyme-linked immunosorbent assay.

The target of a further assay is PDK1 (Homo sapiens (Human), UniProt O15530). The assay is described as follows: PDK1 kinase assay (coupled PDK1/AKT/FAM-crosstide assay, IMAP fluorescence polarization). The format is biochemical. The method, boiled down: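 Coupled cascade: 0.75 nM PDK1 (51-359) → 10 nM AKT2 (140-467-PIFtide) → 100 nM FAM-crosstide. ATP 40 μM, 25° C, 30 min. IMAP FP (ex 485/em 530), 2 h binding. ΔmP vs conc, 4-param fit.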
PDK1, sequence (O15530 51-359): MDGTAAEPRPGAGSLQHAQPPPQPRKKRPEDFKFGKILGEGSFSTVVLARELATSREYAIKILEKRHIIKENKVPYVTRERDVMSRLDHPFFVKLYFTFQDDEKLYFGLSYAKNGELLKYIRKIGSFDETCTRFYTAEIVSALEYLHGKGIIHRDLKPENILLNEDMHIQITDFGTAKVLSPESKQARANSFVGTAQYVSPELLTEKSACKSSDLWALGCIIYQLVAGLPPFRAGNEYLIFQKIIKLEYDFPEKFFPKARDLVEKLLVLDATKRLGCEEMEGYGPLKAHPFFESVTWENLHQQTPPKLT
Background: Fluorescence polarisation rises when a labelled molecule tumbles more slowly, as on binding a larger partner.

Where [2] appears, read: inhibition of P308 Akt in PC-3 cells using MSD.
The mark [3] stands for this setting: inhibition of P308 Akt in PC-3 cells, MSD.
[4] abbreviates: inhibition of phospo-PDK1 in vitro.

Where a name gives a salt, the structure may show the parent alone. Read-outs that look alike come from different tables or passages of the source.

On to `N#Cc1cnc(NCc2ccc(-c3cnc(N)cn3)cc2)c(C(=O)NCc2cncc(F)c2)c1` [Example 312, 2-(4-(5-aminopyrazin-2-yl)benzylamino)-5-cyano-N-((5-fluoropyridin-3-yl)-methyl)nicotinamide], for which the EC50 in assay [1] (setting [2]) is < 1000 nM. Also, on PDK1 (inhibition of PDK1 in vitro), the IC50 was < 100 nM.
Turning to `O=C(NCc1ccc(F)c(F)c1)c1cccnc1NCc1ccc(-c2cnc3[nH]ccc3c2)nc1` [Example 328], the EC50 in assay [1] (setting [2]) was > 10000 nM. Also, the IC50 at PDK1 (inhibition of PDK1 in vitro) was < 100 nM.
Turning to `C[C@H](NC(=O)c1cc(C#N)cnc1NCc1ccc(-c2cnc(N)c(C(=O)NCC(O)CO)c2)cc1)c1ccc(F)cc1` (stereo partly drawn) [Example 206], the EC50 in assay [1] (setting [2]) was 1000 to 10000 nM. Also, the IC50 against PDK1 (inhibition of PDK1 in vitro) is < 100 nM.
Turning to `N#Cc1cnc(NCc2ccc(-c3ccc(N)nc3)cc2)c(C(=O)NCc2ccc(F)c(F)c2)c1` [Example 368, 2-(4-(6-aminopyridin-3-yl)benzylamino)-5-cyano-N-(3,4-difluorobenzyl) nicotinamide], in assay [1] (setting [2]), the EC50 was < 1000 nM. Moreover, on PDK1 (inhibition of PDK1 in vitro), the IC50 was < 100 nM.
On to `C[C@H](NC(=O)c1cc(C#N)cnc1NCc1ccc(-c2c[nH]nc2N)cc1)c1ccc(F)cc1` [Example 142, (S)-2-(4-(3-amino-1H-pyrazol-4-yl)benzylamino)-5-cyano-N-(1-(4-fluorophenyl)ethyl) nicotinamide], for which the EC50 in assay [1] (setting [2]) lay within 1000 to 10000 nM. The IC50 on PDK1 (inhibition of PDK1 in vitro) was > 5000 nM.
`CS(=O)(=O)c1cnc(NCc2ccc(-c3ccc4ncnc(N)c4c3)s2)c(C(=O)NCc2ccc(F)c(F)c2)c1` [Example 8.7.8]: the EC50 in assay [1] (setting [3]) is < 1000 nM. The compound further came in with an IC50 against PDK1 (setting [4]) of 100 to 1000 nM.
On to `O=C(NCc1ccc(F)c(F)c1)c1ccccc1NCc1cccc(-c2c[nH]c3ncccc23)c1` [Example 1.20, 2-(3-(1H-pyrrolo[2,3-b]pyridin-3-yl)benzylamino)-N-(3,4-difluorobenzyl)benzamide], for which the EC50 in assay [1] (setting [3]) lay within 1000 to 10000 nM. Also, at PDK1 (setting [4]), the IC50 is < 100 nM.
Regarding `N#Cc1cnc(NCc2ccc(-c3cnc4[nH]nc(N)c4c3)cc2)c(C(=O)Nc2ccc(F)cc2)c1` [Example 35, 2-(4-(3-amino-1H-pyrazolo[3,4-b]pyridin-5-yl)benzylamino)-5-cyano-N-(4-fluorophenyl) nicotinamide], the EC50 in assay [1] (setting [3]) is < 1000 nM. For the same compound, on PDK1 (setting [4]), the IC50 was < 100 nM.
Regarding `CN1CCN(Cc2cccc(NC(=O)c3cc(C(F)(F)F)cnc3NCc3ccc(-c4cnc5[nH]nc(N)c5c4)cc3)c2)CC1` [Example 440, 2-(4-(3-amino-1H-pyrazolo[3,4-b]pyridin-5-yl)benzylamino)-N-(3-((4-methylpiperazin-1-yl)methyl)phenyl)-5-(trifluoromethyl)nicotinamide], in assay [1] (setting [2]), the EC50 is 1000 to 10000 nM. Further, on PDK1 (inhibition of PDK1 in vitro), the concentration for half-maximal inhibition (IC50) was 100 to 1000 nM.
In the case of `CNS(=O)(=O)c1cnc(NCc2ccc(-c3ccc4ncnc(N)c4c3)s2)c(C(=O)N[C@@H](C)c2ccc(F)cc2)c1` [Example 8.7.7, 2-({[5-(4-aminoquinazolin-6-yl)thiophen-2-yl]methyl}amino)-N-[(1S)-1-(4-fluorophenyl)ethyl]-5-(methylsulfamoyl) pyridine-3-carboxamide], the EC50 in assay [1] (setting [3]) was 1000 to 10000 nM. The IC50 on PDK1 (setting [4]) was in the range of 100 to 1000 nM.
On to `C[C@H](NC(=O)c1cccnc1N[C@@H](COc1ccc2[nH]c(=O)[nH]c2c1)c1ccccc1)c1ccc(F)c(F)c1` [Example 16.3], for which, in assay [1] (setting [3]), the 50% effective concentration (EC50) lay within 1000 to 10000 nM. For the same compound, the half-inhibitory concentration (IC50) against PDK1 (setting [4]) lay within 100 to 1000 nM.
Take `Nc1n[nH]c2ncc(-c3ccc(CNc4ncc(C(F)(F)F)cc4C(=O)NCc4ccc(F)c(F)c4)cc3)cc12` [Example 132, 2-(4-(3-amino-1H-pyrazolo [3,4-b]pyridin-5-yl)benzylamino)-N-(3,4-difluorobenzyl)-5-(trifluoromethyl) nicotinamide]: in assay [1] (setting [2]), the EC50 is < 1000 nM. The IC50 against PDK1 (inhibition of PDK1 in vitro) was < 100 nM.
The corresponding values for `C[C@H](NC(=O)c1cc(C#N)cnc1NCc1ccc(-c2cnc(N)c(C(=O)NCCO)c2)cc1)c1ccc(F)cc1` [Example 204, (S)-2-amino-5-(4-((5-cyano-3-(1-(4-fluorophenyl)ethylcarbamoyl)pyridin-2-ylamino)methyl)phenyl)-N-(2-hydroxyethyl) nicotinamide] are < 1000 nM and < 100 nM.
Regarding `C[C@H](NC(=O)c1cc(C#N)cnc1NCc1ccc(-c2ccc(N)nc2)nc1)c1ccc(F)cc1` [Example 68, 2-[(6′-Amino-[2,3′]bipyridinyl-5-ylmethyl)-amino]-5-cyano-N-[(S)-1-(4-fluoro-phenyl)-ethyl]-nicotinamide], in assay [1] (setting [2]), the EC50 is 1000 to 10000 nM. In addition, the IC50 against PDK1 (inhibition of PDK1 in vitro) was < 100 nM.
On to `C[C@H](NC(=O)c1cccnc1NCc1ccc(-c2ccc3ncnc(N)c3c2)s1)c1ccc(F)cn1` [Example 3.66, 2-({[5-(4-aminoquinazolin-6-yl)thiophen-2-yl]methyl}amino)-N-[(1S)-1-(5-fluoropyridin-2-yl)ethyl] pyridine-3-carboxamide (TFA salt)], for which, in assay [1] (setting [3]), the concentration for a half-maximal effect (EC50) fell in the range of 1000 to 10000 nM. The concentration for half-maximal inhibition (IC50) on PDK1 (setting [4]) is 100 to 1000 nM.
In the case of `Nc1ncnc2ccc(-c3ccc(CNc4ncccc4C(=O)NCc4ccc(F)cc4)s3)cc12` [Example 3.7, 2-({[5-(4-aminoquinazolin-6-yl)thiophen-2-yl]methyl}amino)-N-(4-fluorobenzyl)pyridine-3-carboxamide (TFA salt)], the EC50 in assay [1] (setting [3]) was < 1000 nM. In addition, the IC50 on PDK1 (setting [4]) is < 100 nM.
With `C[C@H](NC(=O)c1nc(C#N)cnc1NCc1ccc(-c2cnc3[nH]nc(N)c3c2)cc1)c1ccc(F)c(F)c1` [Example 25, (S)-3-(4-(3-amino-1H-pyrazolo[3,4-b]pyridin-5-yl)benzylamino)-6-cyano-N-(1-(3,4-difluorophenyl)ethyl)pyrazine-2-carboxamide], the EC50 in assay [1] (setting [3]) is < 1000 nM. Besides, the IC50 at PDK1 (setting [4]) was < 100 nM.
For `C[C@H](NC(=O)c1cccnc1NCc1ccc(-c2ccc3ncnc(N)c3c2)s1)c1cc(F)cc(F)c1` [Example 3.62, (S)-2-(((5-(4-aminoquinazolin-6-yl)thiophen-2-yl)methyl)amino)-N-(1-(3,5-difluorophenyl)ethyl) nicotinamide (TFA salt)], the EC50 in assay [1] (setting [3]) lay within 1000 to 10000 nM. In addition, the IC50 against PDK1 (setting [4]) is < 100 nM.
With `C[C@H](NC(=O)c1cc(C#N)cnc1NCc1ccc(-c2cnc(N)c(CO)c2)cc1)c1ccc(F)cc1` [Example 136, (S)-2-(4-(6-amino-5-(hydroxymethyl)pyridin-3-yl)benzylamino)-5-cyano-N-(1-(4-fluorophenyl)ethyl)nicotinamide], the EC50 in assay [1] (setting [2]) lay within 1000 to 10000 nM. Moreover, the IC50 at PDK1 (inhibition of PDK1 in vitro) is < 100 nM.
Turning to `C[C@H](NC(=O)c1cccnc1NCc1ccc(-c2ccc3ncc4ncn(C)c4c3c2)s1)c1ccc(F)c(F)c1` [Example 2.25, (S)-N-(1-(3,4-difluorophenyl)ethyl)-2-(((5-(1-methyl-1H-imidazo[4,5-c]quinolin-8-yl)thiophen-2-yl)methyl)amino)nicotinamide], the EC50 in assay [1] (setting [3]) is < 1000 nM. For the same compound, the IC50 at PDK1 (setting [4]) is < 100 nM.
Turning to `C[C@H](NC(=O)c1cccnc1NCc1ccc(-c2cc3c(N)ncnc3cn2)s1)c1ccc(F)cc1` [Example 2.13.1, (S)-2-(((5-(4-aminopyrido[3,4-d]pyrimidin-6-yl)thiophen-2-yl)methyl)amino)-N-(1-(4-fluoro-phenyl)ethyl)nicotinamide], in assay [1] (PC-3, 2 h, inhibition of P308 Akt in PC-3 cells, MSD), the EC50 lay within 1000 to 10000 nM. The same compound displayed an IC50 against PDK1 (setting [4]) of 100 to 1000 nM.
Take `C[C@H](NC(=O)c1cc(C(F)(F)F)cnc1NCc1ccc(-c2ccc3ncnc(N)c3c2)s1)c1ccc(F)cc1` [Example 8.12.5, 2-({[5-(4-aminoquinazolin-6-yl)thiophen-2-yl]methyl}amino)-N-[(1S)-1-(4-fluorophenyl)ethyl]-5-(trifluoromethyl)pyridine-3-carboxamide]: the EC50 in assay [1] (setting [3]) lay within 1000 to 10000 nM. At PDK1 (setting [4]), the IC50 was < 100 nM.
On to `C[C@H](NC(=O)c1cc(C#N)cnc1NC/C=C/c1ccc2c(c1)NC(=O)/C2=C\c1cnc[nH]1)c1ccc(F)cc1` [Example 15.4, 2-((E)-3-((Z)-3-((1H-imidazol-5-yl)methylene)-2-oxoindolin-6-yl)allylamino)-5-cyano-N-((S)-1-(4-fluorophenyl)ethyl)nicotinamide], for which, in assay [1] (setting [3]), the EC50 was < 1000 nM. Besides, the IC50 against PDK1 (setting [4]) was < 100 nM.
Consider `C[C@H](NC(=O)c1cccnc1Nc1ccc(-c2ccc3ncnc(N)c3c2)s1)c1ccc(F)c(F)c1` [Example 51, (S)-2-(5-(4-aminoquinazolin-6-yl)thiophen-2-ylamino)-N-(1-(3,4-difluorophenyl)ethyl)nicotinamide], for which, in assay [1] (setting [2]), the EC50 is > 10000 nM. Also, the IC50 against PDK1 (inhibition of PDK1 in vitro) is > 5000 nM.
Regarding `O=C(NCc1ccc(F)c(F)c1)c1cccnc1NCc1csc(-c2c[nH]c3ncncc23)n1` [Ex. 6.13, N-(3,4-difluorobenzyl)-2-({[2-(7H-pyrrolo[2,3-d]pyrimidin-5-yl)-1,3-thiazol-4-yl]-methyl}amino) pyridine-3-carboxamide], the EC50 in assay [1] (setting [3]) was > 10000 nM. This compound gave an IC50 against PDK1 (setting [4]) of 100 to 1000 nM.
Turning to `CN(C)C(=O)c1cnc(NCc2ccc(-c3ccc4ncnc(N)c4c3)s2)c(C(=O)NCc2ccc(F)c(F)c2)c1` [Example 7.24.4, 2-({[5-(4-aminoquinazolin-6-yl)thiophen-2-yl]methyl}amino)-N^3-(3,4-difluorobenzyl)-N^5,N^5-dimethylpyridine-3,5-dicarboxamide], in assay [1] (setting [3]), the EC50 was < 1000 nM. Moreover, the IC50 at PDK1 (setting [4]) was < 100 nM.
For the compound `C[C@H](NC(=O)c1cccnc1NCc1ccc(-c2ccc3ncnc(N)c3c2)s1)c1cccc(F)c1` [Example 3.21, 2-({[5-(4-aminoquinazolin-6-yl)thiophen-2-yl]methyl}amino)-N-[(1S)-1-(3-fluorophenyl)ethyl]pyridine-3-carboxamide (TFA salt)], in assay [1] (setting [3]), the EC50 was 1000 to 10000 nM. Further, on PDK1 (setting [4]), the IC50 is < 100 nM.

Usually EC50 stands for the concentration at which the effect is half-maximal. A word on the IC50: it is the concentration needed to halve the response being measured. The low end stands for inhibition by little substance, the high end for a need for much substance.

For the origin of these results see US10030016B2 (Sunesis Pharmaceuticals, Inc., priority 2009, dated 2018).
